According to PubChem BioAssay AID1919000 (Molecular Pharmacology Branch, DTP, NCI, 2023):
Values joined by “and” are separate entries in the source; they are usually repeats but may differ in a detail not shown here. Equal entries are not always repeated.

Test system: 653999-131-R-J2-PDC complex spheroids, growth % test/control
Test: Anticancer human tumor 653999-131-R-J2-PDC patient-derived lung adenocarcinoma cell line growth inhibition [AhR]
Details: for viability, T/C: stronger effect = lower value
From the text: Multicellular complex tumor spheroid response to aryl hydrocarbon receptor antagonists in combination with a variety of drugs and investigational agents in selected tumor cell lines
The current study was undertaken to assess response to aryl hydrocarbon receptor antagonists in combination with standard-of-care drugs and investigational agents in solid tumor complex spheroid models. Complex spheroids include a stromal component modeled by human endothelial cells (HUVEC) and fibroblasts modeled by human mesenchymal stem cells (MSCs). The concentration ranges selected for each drug and investigational agent were based upon clinically achievable concentrations if the clinical Cmax of the agent was known.
Compounds. The drugs and investigational agents: BAY 2416964 (NSC825713), GNF351 (NSC835774), CH-223191 (NSC835775), CPI-455 (NSC825282), aza-TdCyd (NSC777586), decitabine (NSC127716), belinostat (NSC758774), entinostat (NSC756642), pevonedistat (NSC761192), tazemetostat (NSC777109), talazoparib (NSC765396), olaparib (NSC753686), selinexor (NSC780203), nedisertib (M3814, NSC802822), bortezomib (NSC756655), venetoclax (NSC766270), doxorubicin (NSC123127), elimusertib (BAY189344, NSC800525), ceralasertib (AZD6738, NSC777638), TAK-243 (NSC785004), alisertib (NSC759677), etoposide (NSC141540), topotecan (NSC609699), eribulin (NSC707389), gemcitabine (NSC613327), carboplatin (NSC241240), cisplatin (NSC119875), and SN-38 (NSC673596) were obtained from the National Cancer Institute (NCI) Developmental Therapeutics Program Chemical Repository (32). The FDA-approved anticancer drug set is available from the Developmental Therapeutics Program at https://dtp.cancer.gov/organization/dscb/obtaining/available plates.htm. […] The stock solutions were prepared in dimethyl sulfoxide (DMSO, Sigma-Aldrich, St. Louis, MO, cat. D2650), except for the platinum compounds which were prepared in saline (Quality Biological, Gaithersburg, MD, cat. 114-055-101), at 800-fold the tested concentration and stored at -70 degrees C prior to their use. All drugs and investigational agents were tested over a range starting from a high concentration at or near the clinical Cmax and decreasing in half-log increments. If the clinical Cmax for an agent had not been determined, the highest concentration tested was 10 microM (Table 1).
Cell Culture. All cells were maintained in an incubator at 37 degrees C and 5% CO2 with 95% humidity. The PDC lines were cultured according to standard operating procedures established by the NCI PDMR (https://pdmr.cancer.gov). Briefly, all PDCs were thawed and cultured in Matrigel-coated flasks prepared with a working solution of 1X Ham's F-12 nutrient mix, without supplementation (Invitrogen, Waltham, MA, cat. 11765054), 100 U/mL penicillin-streptomycin (Invitrogen, cat. 15140122), and 2.5% Matrigel (Corning Inc., Corning, NY, cat. 354248) for the first three passages. All PDCs were cultured in complete DMEM/F-12 media containing advanced DMEM/F-12 (Invitrogen, cat. 12634028), 4.9% defined fetal bovine serum, heat inactivated (HyClone Laboratories Inc., Logan, UT, cat. SH30070.03HI), 389 ng/mL hydrocortisone (Sigma-Aldrich, cat. H4001), 9.7 ng/mL human EGF recombinant protein (Invitrogen, cat. PHG0313), 23.4 microg/mL adenine (Sigma-Aldrich, cat. A2786), 97.3 U/mL penicillin-streptomycin (Invitrogen, cat. 15140122), 1.9 mM L-glutamine (Invitrogen, cat. 25030081), and 9.7 microM Y-27632 dihydrochloride (Tocris Bioscience, Bristol, United Kingdom, cat. 1254). The PDCs were cultured in complete DMEM/F12 media without 10 microM Y-27632 dihydrochloride for at least two passages prior to the screen. The established cell lines NCI-H1341 and […] were cultured in DMEM/F-12, HEPES (Invitrogen, cat. 11330032), 5% defined fetal bovine serum (HyClone Laboratories Inc., cat. SH30070.03), ITS premix universal culture supplement [insulin (5 microg/mL), transferrin (5 microg/mL), and selenious acid (5 ng/mL)] […]

[1] = curve of first compound, second compound 0.1 µM
[2] = curve of first compound, second compound 0.316 µM
[3] = curve of first compound, second compound 1 µM
[4] = curve of first compound, second compound 3.16 µM
[5] = curve of first compound, second compound 10 µM
[6] = second compound 0.1 µM, first compound 0.0316 µM
[7] = second compound 0.1 µM, first compound 0.1 µM
[8] = second compound 0.1 µM, first compound 0.316 µM
[9] = second compound 0.1 µM, first compound 1 µM
[10] = second compound 0.1 µM, first compound 3.16 µM
[11] = second compound 0.1 µM, first compound 10 µM
[12] = second compound 0.316 µM, first compound 0.0316 µM
[13] = second compound 0.316 µM, first compound 0.1 µM
[14] = second compound 0.316 µM, first compound 0.316 µM
[15] = second compound 0.316 µM, first compound 1 µM
[16] = second compound 0.316 µM, first compound 3.16 µM
[17] = second compound 0.316 µM, first compound 10 µM
[18] = second compound 1 µM, first compound 0.0316 µM
[19] = second compound 1 µM, first compound 0.1 µM
[20] = second compound 1 µM, first compound 0.316 µM
[21] = second compound 1 µM, first compound 1 µM
[22] = second compound 1 µM, first compound 3.16 µM
[23] = second compound 1 µM, first compound 10 µM
[24] = second compound 3.16 µM, first compound 0.0316 µM
[25] = second compound 3.16 µM, first compound 0.1 µM
[26] = second compound 3.16 µM, first compound 0.316 µM
[27] = second compound 3.16 µM, first compound 1 µM
[28] = second compound 3.16 µM, first compound 3.16 µM
[29] = second compound 3.16 µM, first compound 10 µM
[30] = second compound 10 µM, first compound 0.0316 µM
[31] = second compound 10 µM, first compound 0.1 µM
[32] = second compound 10 µM, first compound 0.316 µM
[33] = second compound 10 µM, first compound 1 µM
[34] = second compound 10 µM, first compound 3.16 µM
[35] = second compound 10 µM, first compound 10 µM
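Note: spheroids exposed to agents for seven days.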

In the case of `COc1ccc([C@@H](O)c2cc(-c3ncnc4cc(N5CCOCC5)ccc34)c(F)cc2Cl)nn1`, the viability, T/C (compound 0.0316 µM) is reported as 112% and 97% and 106%, the viability, T/C (compound 0.1 µM) is reported as 105% and 114% and 103% and the viability, T/C (compound 0.316 µM) is reported as 100% and 91.4% and 81.3%. For the same compound, the viability, T/C (compound 1 µM) was 90.5% and 90.1% and 83.8%, the viability, T/C (compound 3.16 µM) was 66.2% and 61.9% and 69.9% and the viability, T/C (compound 10 µM) was 44.8% and 45.4% and 42.3%. For the same compound, the IC50 (curve of compound) was 7.57 µM and 7.28 µM and 7.56 µM.
In the case of `COc1ccc([C@@H](O)c2cc(-c3ncnc4cc(N5CCOCC5)ccc34)c(F)cc2Cl)nn1` + Cc1ccccc1N=Nc1ccc(NC(=O)c2ccnn2C)c(C)c1, the IC50 [1] is reported as 9.88 µM, the IC50 [2] is reported as > 10 µM and the IC50 [3] is reported as > 10 µM. The IC50 [4] was > 10 µM, the IC50 [5] was 7.77 µM and the viability, T/C [6] was 101%. The viability, T/C [7] was 105%, the viability, T/C [8] was 88.7% and the viability, T/C [9] was 74.2%. The viability, T/C [10] was 66%, the viability, T/C [11] was 48.6% and the viability, T/C [12] was 114%. For the same compound, the viability, T/C [13] was 114%, the viability, T/C [14] was 88.7% and the viability, T/C [15] was 83.6%. The viability, T/C [16] was 65%, the viability, T/C [17] was 51.8% and the viability, T/C [18] was 96%. For the same compound, the viability, T/C [19] was 94.5%, the viability, T/C [20] was 109% and the viability, T/C [21] was 87.6%. The viability, T/C [22] was 62.8%, the viability, T/C [23] was 54.9% and the viability, T/C [24] was 96%. The viability, T/C [25] was 107%, the viability, T/C [26] was 98.7% and the viability, T/C [27] was 88.1%. The viability, T/C [28] was 67.9%, the viability, T/C [29] was 54.5% and the viability, T/C [30] was 89.5%. The viability, T/C [31] was 101%, the viability, T/C [32] was 95.1% and the viability, T/C [33] was 83.6%. For the same compound, the viability, T/C [34] was 70.9% and the viability, T/C [35] was 44.2%.
`CC(C)c1c(-c2ccccc2)nc2c(C#N)c[nH]n2c1=O` + Cc1ccccc1N=Nc1ccc(NC(=O)c2ccnn2C)c(C)c1 was tested, and the IC50 [1] was > 10 µM, the IC50 [2] was > 10 µM and the IC50 [3] was > 10 µM. The IC50 [4] was > 10 µM, the IC50 [5] was > 10 µM and the viability, T/C [6] was 97.4%. For the same compound, the viability, T/C [7] was 101%, the viability, T/C [8] was 107% and the viability, T/C [9] was 95.6%. The viability, T/C [10] was 98.5%, the viability, T/C [11] was 99.1% and the viability, T/C [12] was 96.5%. The viability, T/C [13] was 105%, the viability, T/C [14] was 103% and the viability, T/C [15] was 98.9%. It also gave a viability, T/C [16] of 98.2%, a viability, T/C [17] of 111% and a viability, T/C [18] of 106%. The viability, T/C [19] was 126%, the viability, T/C [20] was 108% and the viability, T/C [21] was 105%. It also gave a viability, T/C [22] of 109%, a viability, T/C [23] of 104% and a viability, T/C [24] of 99.4%. It also gave a viability, T/C [25] of 115%, a viability, T/C [26] of 107% and a viability, T/C [27] of 92.8%. For the same compound, the viability, T/C [28] was 90.3%, the viability, T/C [29] was 105% and the viability, T/C [30] was 97.5%. It also gave a viability, T/C [31] of 105%, a viability, T/C [32] of 111% and a viability, T/C [33] of 92.7%. It also gave a viability, T/C [34] of 107% and a viability, T/C [35] of 108%.
`CC[C@@]1(O)C(=O)OCc2c1cc1n(c2=O)Cc2cc3c(CN(C)C)c(O)ccc3nc2-1` was tested, and the viability, T/C (compound 0.000316 µM) was 118% and 95.5% and 101%, the viability, T/C (compound 0.001 µM) was 100% and 95.1% and 108% and the viability, T/C (compound 0.00316 µM) was 91.8% and 99.8% and 102%. For the same compound, the viability, T/C (compound 0.01 µM) was 80.7% and 79.8% and 91.8%, the viability, T/C (compound 0.0316 µM) was 69.5% and 61.3% and 63.9% and the viability, T/C (compound 0.1 µM) was 44.3% and 36.5% and 48%. For the same compound, the IC50 (curve of compound) was 0.0848 µM and 0.0518 µM and 0.0866 µM.
For `CC1COCCN1c1cc(C2(S(C)(=N)=O)CC2)nc(-c2ccnc3[nH]ccc23)n1` (stereo unspecified), the viability, T/C (compound 0.0316 µM) was 109% and 102% and 99.7%, the viability, T/C (compound 0.1 µM) was 110% and 106% and 102% and the viability, T/C (compound 0.316 µM) was 104% and 101% and 107%. The viability, T/C (compound 1 µM) was 101% and 98.8% and 94.3%, the viability, T/C (compound 3.16 µM) was 87.2% and 70.5% and 81.3% and the viability, T/C (compound 10 µM) was 50.6% and 45.6% and 57.8%. For the same compound, the IC50 (curve of compound) was > 10 µM and 8.16 µM.
